Laboratory results: US9750742B2, “Small molecular inhibitors of RAD51 recombinase and methods thereof” (Drexel University, priority 2011, dated 2017)

What was measured:
RAD51 [1] = test: Western blotting, RAD51 expression level; format: cell-based, human; conditions: B02 20 μM versus no treatment
Description: The pellets were washed three times with cold PBS and then resuspended in lysis buffer containing 50 mM HEPES, pH 7.5, 50 mM NaCl, 5 mM EDTA, 1% Triton X-100, 50 mM NaF, and 10 mM Na4P2O7, 1 mM PMSF, and proteinase inhibitor cocktail (Roche Applied Science) for 30 min at 4° C. The cell lysates were centrifuged at 16,000×g, for 15 min at 4° C., and then the supernatants were collected and protein concentrations were determined using the Bradford assay. Aliquots containing 50 Ξg of total protein were analyzed by 12% SDS-PAGE. […]
Then, both pCBASce-transfected and untransfected cells were trypsinized and resuspended in DMEM supplemented with 10% FBS, 100 units/ml penicillin and 100 μg/ml streptomycin. […] The supernatants were collected and protein concentrations were determined by the Bradford assay using bovine serum albumin (BSA) as a standard. […] Immunoblot signals were detected using Enhanced Chemiluminescence (ECL) reagent (Pierce). […]

HEK cells = test: Clonogenic survival, HEK cells sensitivity to cisplatin; format: cell-based, human
Description: Briefly, MEF cells were trypsinized and the appropriate number of cells was replated on 10 cm tissue culture dishes. […] Cells were fixed and stained using staining solution (0.05% crystal violet, 50% methanol in PBS); colonies were counted using an AlphaImager 3400 (Alpha Innotech Inc.). The percent of survival was determined as described (Hall & Giccia, 2005, “Radiobiology for the Radiologist”, 6th Ed., Philadelphia, Pa.: Lippincott Williams & Wilkins, pp. 30-45). The percent of survival obtained from untreated cells was normalized to 100% survival.
To suppress RAD51 expression, HEK cells were transfected with 100 nM RAD51 siRNA (sc-36361; Santa Cruz Biotechnology). Briefly, cells (1×10^6) were seeded in a 3.5-cm tissue culture plate and incubated overnight, then the medium was removed and the cell layer was washed three times with PBS. Transfection was carried out by adding 1 ml transfection solution containing 100 pmol […] siRNA and 10 μl siRNA transfection reagent (sc-29528; Santa Cruz Biotechnology) in Opti-MEM I Reduced-Serum medium (Invitrogen) to each plate. Six to 7 hours after transfection the medium was replaced with fresh DMEM+. Twenty-four, 48, 72, and 96 h after transfection, the RAD51 level was determined using Western blotting. As a specificity control scrambled siRNA (sc-37007; Santa Cruz Biotechnology) was used instead of RAD51 siRNA.

RecA = biological target: T1, RecA (Escherichia coli, UniProt P0A7G6); test: Branch migration assay, RecA; format: biochemical, E. coli; conditions: B02 10-100 μM
T1 construct: purchased USB Inc. (Cleveland, Ohio)
Description: Branch migration was initiated by addition of ^32P-labeled 5′-joint molecules (0.1 nM, molecules) that were produced by RecA-promoted reaction and was carried out for 30 min. The DNA products were deproteinized and analyzed in 1.5% agarose-TAE gels and quantified using a Storm 840 PhosphorImager (GE Healthcare).

RAD51 [2] = biological target: T2, RAD51 (Homo sapiens, UniProt Q06609); test: B02 binding to RAD51 by SPR; conditions: absence of ATP
T2 construct: made in house
T2 sequence (Q06609 1-339): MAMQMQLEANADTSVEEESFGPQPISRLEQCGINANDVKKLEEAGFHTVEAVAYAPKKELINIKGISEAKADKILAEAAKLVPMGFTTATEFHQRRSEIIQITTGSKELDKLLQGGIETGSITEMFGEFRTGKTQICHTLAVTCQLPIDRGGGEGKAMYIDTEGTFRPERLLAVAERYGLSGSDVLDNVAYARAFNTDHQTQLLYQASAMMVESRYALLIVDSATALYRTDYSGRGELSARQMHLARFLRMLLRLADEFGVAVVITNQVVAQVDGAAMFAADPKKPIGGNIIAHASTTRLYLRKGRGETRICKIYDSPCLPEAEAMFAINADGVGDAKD
Description: Data were analyzed using the ProteOn Manager Software version 3.0 (Bio-Rad).

pUC19 supercoiled dsDNA = test: Ethidium bromide displacement assay; format: binding
Description: The fluorescence of the sample was measured using a FlouroMax-3 fluorimeter at an excitation wavelength of 260 nm and an emission wavelength of 546 nm. Then, the small molecule inhibitors were added in increasing concentrations and allowed to equilibrate for 1 min, followed by the fluorescence measurement.

I-SceI = test: Western blotting, I-SceI expression level; format: cell-based; conditions: with or without B02
Description: Then, both pCBASce-transfected and untransfected cells were trypsinized and resuspended in DMEM supplemented with 10% FBS, 100 units/ml penicillin and 100 μg/ml streptomycin. The suspensions were centrifuged at 1000×g for 5 min at 4° C., the pellets were washed 3 times with cold PBS and then resuspended in lysate buffer containing 50 mM HEPES (pH 7.5), 50 mM NaCl, 5 mM EDTA, 1% Triton X-100, 50 mM NaF, and 10 mM Na4P2O7, 1 mM phenylmethylsulfonyl fluoride (PMSF) and proteinase inhibitor cocktail (Roche Applied Science) for 30 min at 4° C. The cell lysates were centrifuged at 16000×g, for 15 min at 4° C. The supernatants were collected and protein concentrations were determined by the Bradford assay using bovine serum albumin (BSA) as a standard. Equivalent amounts of proteins were loaded on 12% SDS-PAGE gels and after electrophoretic separation were transferred on a PVDF membrane (Osmonics, Inc). […] Immunoblot signals were detected using Enhanced Chemiluminescence (ECL) reagent (Pierce). […]

[3] = system: DR-GFP reporter system in 293 human embryonic kidney (HEK) cells; test: DR-GFP assay for homologous recombination in human cells; format: cell-based; conditions: B02 20 μM; non-treatment cells 3.28%
Description: 293 HEK cells expressing DR-GFP were grown until the log phase. […] Then a 200 μl mixture containing 2 μg of pCBASce supercoiled plasmid DNA encoding I-SceI rare-cutting restriction endonuclease (Richardson et al., 1998, Genes Dev. 12:3831-42) and 6 μl of GenDrill™ transfection reagent (BamaGen BioScience LLC) in Opti-MEM® I Reduced-Serum (Invitrogen) was added to each well. After 2 days incubation, cells were trypsinized and diluted to density of 200 cells/μl in PBS (10 mM Na2HPO4, 1.76 mM KH2PO4, 137 mM NaCl and 2.7 mM KCl, pH 7.4) for Fluorescence Activated Cell Sorting (FACS) analysis on a Guava EasyCyte Plus System (Millipore, Billerica, Mass.).

RAD51 [4] = biological target: T2, RAD51; test: DNA binding assay (RAD51-ssDNA complexes); format: biochemical; conditions: B02 25 μM, without NaCl challenge
Description: DNA binding assay was performed as described (Bugreev et al., 2005, J. Biol. Chem. 280:26886-95). […] After 10 min, reactions was mixed with 0.2 vol of loading buffer and loaded on 10% polyacrylamide gels (135 V, 20 mA) in 0.5×TBE buffer containing 45 mM Tris borate (pH 8.3) and 0.25 mM EDTA. Gels were quantified using a Storm 840 PhosphorImager.

T1 sequence (P0A7G6 whole entry): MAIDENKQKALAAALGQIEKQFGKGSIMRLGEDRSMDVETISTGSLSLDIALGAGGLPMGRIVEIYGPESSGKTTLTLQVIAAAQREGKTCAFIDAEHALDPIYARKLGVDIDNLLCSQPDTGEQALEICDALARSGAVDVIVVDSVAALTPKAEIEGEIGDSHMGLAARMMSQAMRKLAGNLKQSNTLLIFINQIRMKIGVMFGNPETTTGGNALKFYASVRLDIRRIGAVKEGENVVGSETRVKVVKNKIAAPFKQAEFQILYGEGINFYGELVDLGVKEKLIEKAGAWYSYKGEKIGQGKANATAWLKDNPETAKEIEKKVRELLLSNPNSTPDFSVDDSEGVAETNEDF

**Q.** Which results are given for `O=c1c2ccccc2nc(/C=C/c2cccnc2)n1Cc1ccccc1` [Compound B02, (E)-3-benzyl-2-(2-(pyridin-3-yl)vinyl)quinazolin-4(3H)-one]?
**A.** expression of RAD51 (RAD51 [1]): comparable; incubation time at which maximal sensitivity was reached (HEK cells; B02 5 μM, cisplatin 16 μM): 16 h; incubation time required to increase the sensitivity of HEK cells for cisplatin (HEK cells; B02 5 μM, cisplatin 16 μM): 10 to 12 h; sensitization of HEK cells to cisplatin (HEK cells; B02 combined with RAD51 siRNA versus each alone): more strongly sensitized; inhibition of branch migration activity of RecA (RecA): did not inhibit; kd (RAD51 [2]): 2.5 (±0.3)×10^−2 s^−1; DNA binding, result in words (pUC19 supercoiled dsDNA): not to bind DNA; expression of I-SceI protein (I-SceI): did not affect; yield of GFP positive cells (I-SceI-induced) [3]: 0.40%; loss of filaments (RAD51 [4]): 20%
